Measured values taken from PMC6770484, “Discovery of Orexant and Anorexant Agents with Indazole Scaffold Endowed with Peripheral Antiedema Activity” (Biomolecules, 2019).
Read-outs that look alike come from different tables or passages of the source.

Key:
[1] = biological target: T1, cannabinoid receptors (CB1), rat brain membranes (Rattus norvegicus, UniProt P20272); conditions: displacement of [3H]WIN55212-2, rat brain membranes; cited from earlier work
T1 construct: Crude membrane fractions were prepared from the brain; from tissue; host or cells: Wistar rat whole brain, crude membrane fraction
T1 sequence (P20272 whole entry): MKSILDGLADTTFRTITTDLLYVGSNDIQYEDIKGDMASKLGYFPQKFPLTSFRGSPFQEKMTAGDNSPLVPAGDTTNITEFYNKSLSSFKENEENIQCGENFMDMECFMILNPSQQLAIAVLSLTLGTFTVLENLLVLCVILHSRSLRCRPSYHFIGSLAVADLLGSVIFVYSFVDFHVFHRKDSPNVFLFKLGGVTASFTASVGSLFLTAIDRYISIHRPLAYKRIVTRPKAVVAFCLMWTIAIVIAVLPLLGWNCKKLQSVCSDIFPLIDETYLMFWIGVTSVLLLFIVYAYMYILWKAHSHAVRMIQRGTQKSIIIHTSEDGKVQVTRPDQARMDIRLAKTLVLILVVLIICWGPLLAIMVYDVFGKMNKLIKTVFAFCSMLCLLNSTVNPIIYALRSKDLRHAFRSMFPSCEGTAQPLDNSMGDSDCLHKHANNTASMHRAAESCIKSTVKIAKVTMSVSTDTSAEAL

[2] = biological target: T2, CB1 receptor G protein activation, rat brain membranes (Rattus norvegicus, UniProt P20272); conditions: cited from earlier work; for [35S]GTPγS Binding Emax: basal = 100%; for EC50: read-out: [35S]GTPγS Binding EC50
T2 construct: Crude membrane fractions were prepared from the brain; from tissue; host or cells: Wistar rat whole brain, crude membrane fraction
T2 sequence (P20272 whole entry): as above

[3] = test system: food intake; experiment: Feeding test (food intake); assay type: in vivo, CD-1 male mice; conditions: 10 mg/Kg i.p., fasted mice, 1-h test
From the text: (§1) The international and national law and policies approved by Italian Ministry of Health were used to comply with all animal care and experimental procedures. Animal studies were advised in compliance with the ARRIVE guidelines and with the recommendations made by EU Directive 2010/63/EU for animal experiments and the Basel declaration including the 3Rs concept. CD-1 male mice (10–14 weeks of age, 25–30 g of weight) were bought from Charles River (Milan, Italy). Shortly after their arrival and for at least one week, they were kept in an animal care facility under controlled standard conditions of temperature (21 ± 1 °C), light (from 7:00 AM to 7:00 PM), and relative humidity (60 ± 10%). Access to drinking water and food was assured. All procedures were performed to decrease the number of animals used (n = 6 per group) and their distress.
The test was carried out as previously described. At 24 h before the start of a feeding test, all food was removed from the home cages of mice to be tested. The next day and at least 1 h before the feeding test began, the mice were transported to the laboratory. On test days, the animals were placed in the home cages for 30 min of drug assimilation, during which food was not available. Then compounds were intraperitoneally administered (10 mg/kg). Mice were transferred into transparent and individual plastic cages with thick white paper lining the bottom and access to a pre-measured amount of their regular lab chow (2 gr) for the 1-h test. At the end of 1 h, mice were repositioned into their home cage. The amount of food left in the trial cage, including crumbs, was measured, and the amount consumed was calculated. Feeding trials normally happened on Tuesdays and Fridays between 12:00 and 14:00 h.

[4] = biological target: T1, cannabinoid receptors (CB1), rat brain membranes; experiment: [3H]WIN55212-2 radioligand competition binding assay
Procedure: (§2) Wistar rats were locally bred and handled according to the EU Directive 2010/63/EU and to the Regulations on Animal Protection (40/2013. (II. 14.) Korm. r.) of Hungary. Crude membrane fractions were prepared from the brain. Brains were quickly removed from the euthanized rats and directly put in an ice-cold 50 mM Tris–HCl buffer (pH 7.4). The collected tissue was then homogenized in 30 volumes (v/w) of an ice-cold buffer with a Braun Teflon-glass homogenizer at the highest rpm. The homogenate was centrifuged at 20,000× g for 25 min, and the resulting pellet was suspended in the same volume of a cold buffer followed by incubation at 37 °C for 30 min to remove endogenous ligands. Centrifugation was then repeated. The final pellets were taken up in five volumes of a 50 mM Tris–HCl (pH 7.4) buffer containing 0.32 M sucrose and stored at −80 °C. Prior to the experiment, aliquots were thawed and centrifuged at 20,000× g for 25 min and then they were resuspended in 50 mM Tris–HCl (pH 7.4), homogenized with a Douncer, followed by the determination of the protein concentration by the method of Bradford. The membrane suspensions were immediately used either in radioligand binding experiments or in [^35S]GTPγS functional assays.
Filtration was performed with a 24-well Brandel Cell Harvester (Gaithersburg, MD, USA). Filters were air-dried and immersed into Ultima Gold MV scintillation cocktail, and then radioactivity was measured with a TRI-CARB 2100TR liquid scintillation analyzer (Packard, Perkin Elmer, Waltham, MA, USA).

[5] = biological target: T2, CB1 receptor G protein activation, rat brain membranes; experiment: Ligand stimulated [35S]GTPγS binding assay; assay type: biochemical; conditions: for Emax: rat brain membranes, basal = 100%, mean ± S.E.M.
Procedure: as §2
Rat brain membranes (30 µg protein/tube), prepared as described above, were incubated with 0.05 nM of [^35S]GTPγS (PerkinElmer) and 10^−10–10^−5 M unlabeled ligands in the presence of 30 µM of GDP, 100 mM of NaCl, 3 mM of MgCl2 and 1 mM of EGTA in a 50 mM Tris–HCl buffer (pH 7.4) for 60 min at 30 °C. Basal [^35S]GTPγS binding was measured in the absence of ligands and set as 100%. Nonspecific binding was determined by the addition of 10 µM unlabeled GTPγS and subtracted from total binding. Incubation, filtration and radioactivity measurements of the samples were carried out as described above.
In [^35S]GTPγS binding studies, data were expressed as the percentage stimulation of the specific [^35S]GTPγS binding over the basal activity and are given as means ±S.E.M. Each experiment was performed in triplicate and analyzed with sigmoid dose–response curve fitting to obtain potency (EC50) and efficacy (Emax) values. All data and curves were analyzed by GraphPad Prism 5.0 (San Diego, CA, USA).

[6] = test system: formalin-induced licking/biting; experiment: Formalin test; assay type: in vivo, CD-1 male mice; conditions: 100 μg/20 μL s.c., mice
From the text: as §1
Mice were located to adapt into the transparent cages individually (30 × 14 × 12 cm) for at least an hour before testing. They were injected with 20 μL of a 1% solution of formalin in saline. Then, the compounds were administered subcutaneously in the dorsal surface of the right hind paw of the mouse using a microsyringe with a 27-gauge needle for 15 min before. Compounds were prepared by freshly diluting saline containing 0.9% NaCl in the ratio DMSO:saline 1:3 (v/v). […] The total time the animal spent licking or biting its paw was calculated.

[7] = test system: zymosan-induced paw edema; experiment: Edema induced by zymosan; assay type: in vivo, CD-1 male mice; conditions: 100 μg/20 μL s.c., for 24 h
From the text: as §1
In this test, 100 µg of the compounds were administered subcutaneously in a volume of 20 µL in the dorsal surface of mice hind paw; this was done 15 min before a subcutaneous injection (20 μL/paw) of zymosan A (2.5% w/v in saline) into the same paw. Then, paw edema was calculated as formerly described. […] Paw volume was quantified using a hydroplethysmometer modified for small volumes (Ugo Basile, Varese, Italy) three times before the injections and at 1, 2, 3, 4 and 24 h thereafter.

[8] = test system: zymosan-induced thermal hyperalgesia; experiment: Zymosan-induced hyperalgesia (plantar test); assay type: in vivo, CD-1 male mice; conditions: 100 μg/20 μL s.c., after 3 h
From the text: as §1, with “All procedures were performed to decrease the number of animals used (n = 6 per group) and their distress.” left out
The compounds (100 µg) were administered subcutaneously in a volume of 20 µL in the dorsal surface of mice hind paw; this was done 15 min before a subcutaneous injection (20 μL/paw) of zymosan A (2.5% w/v in saline) into the same paw before the measurement of hyperalgesia. The sensitivity to a noxious heat stimulus was measured by the plantar test (Ugo Basile, Italy), in order to evaluate thermal hyperalgesia after the zymosan-induced inflammation of the mouse hind paw. […] Furthermore, on the test day, the animals were acclimatized to the experimental room 1 h before paw withdrawal latency (PWL) was calculated. […]

Compound	[35S]GTPγS Binding Emax [2] [%]	EC50 [2] [nM]	effect on food intake [3]	Ki [4] [nM]	Emax [5] [%]	further results
CCCCCn1cc(C(=O)c2cccc3ccccc23)c2ccccc21 [JWH-018, reference compound]	163 ± 5.2	16 ± 3	–	–	–	Ki [1]: 3.5 ± 1 nM
CC(C)(C)[C@H](NC(=O)c1nn(Cc2ccc(Cl)cc2Cl)c2ccccc12)C(=O)O [LONI1, (S)-2-(1-(2,4-dichlorobenzyl)-1H-indazole-3-carboxamido)-3,3-dimethylbutanoic acid]	84 ± 6.6	> 1000	–	–	–	–
COC(=O)[C@@H](NC(=O)c1nn(Cc2ccc(Cl)cc2Cl)c2ccccc12)C(C)(C)C [LONI2, (S)-methyl-2-(1-(2,4-dichlorobenzyl)-1H-indazole-3-carboxamido)-3,3-dimethylbutanoate]	143 ± 5.7	8.4	reduce food intake	–	–	–
CC(C)(C)[C@H](NC(=O)c1nn(Cc2ccc(Cl)cc2Cl)c2ccccc12)C(N)=O [LONI3, (S)-N-(1-amino-3,3-dimethyl-1-oxobutan-2-yl)-1-(2,4-dichlorobenzyl)-1H-indazole-3-carboxamide]	139 ± 4.5	126	–	–	–	–
CC(C)[C@H](NC(=O)c1nn(Cc2ccc(Cl)cc2Cl)c2ccccc12)C(=O)O [LONI4, (S)-2-(1-(2,4-dichlorobenzyl)-1H-indazole-3-carboxamido)-3-methylbutanoic acid]	82 ± 10.6	> 1000	reduce food intake	–	–	–
CNC(=O)[C@@H](NC(=O)c1nn(Cc2ccc(Cl)cc2Cl)c2ccccc12)C(C)C [LONI10, (S)-1-(2,4-dichlorobenzyl)-N-(3-methyl-1-(methylamino)-1-oxobutan-2-yl)-1H-indazole-3-carboxamide]	–	–	–	84 ± 3.4	100 ± 1.7	–
CNC(=O)[C@@H](NC(=O)c1nn(Cc2ccc(Cl)cc2Cl)c2ccccc12)C(C)(C)C [LONI11, (S)-1-(2,4-dichlorobenzyl)-N-(3,3-dimethyl-1-(methylamino)-1-oxobutan-2-yl)-1H-indazole-3-carboxamide]	–	–	increased the food intake	11 ± 1.2	151 ± 3	EC50 [5]: 200 ± 13 nM; potency in GTP-binding protein stimulation relative to WIN55,212 ([5]; compared with WIN55,212): three-fold less potency; antinociceptive effect in formalin test [6]: slight antinociceptive effect; percent of paw volume (zymosan-induced edema) [7]: 100%; percent of paw latency (zymosan-induced hyperalgesia) [8]: about 50%
CNC(=O)[C@H](CC(C)C)NC(=O)c1nn(Cc2ccc(Cl)cc2Cl)c2ccccc12 [LONI12, (S)-1-(2,4-dichlorobenzyl)-N-(4-methyl-1-(methylamino)-1-oxopentan-2-yl)-1H-indazole-3-carboxamide]	–	–	–	320 ± 16	101 ± 1	–
Cc1c(C(=O)NN2CCCCC2)nn(-c2ccc(Cl)cc2Cl)c1-c1ccc(Cl)cc1 [rimonabant, 5-(4-chlorophenyl)-1-(2,4-dichloro-phenyl)-4-methyl-N-(piperidin-1-yl)-1H-pyrazole-3-carboxamide, reference compound]	–	–	reduce food intake	–	–	–
